Assay results taken from US10023602B2, “Hamamelitannin analogues and uses thereof” (Universiteit Gent, priority 2014, dated 2018).

Key:
[1] = test system: methicillin resistant S. aureus Mu50 strain (S. aureus ATCC700699) biofilm; assay: Biofilm susceptibility to vancomycin, combination treatment regimen (mature biofilm treated with compound plus vancomycin); assay type: cell-based; conditions: for Combin. (100 μM): percentage Colony Forming Units (CFU's) per biofilm: compound 100 μM together with VAN 20 μg/ml on mature biofilm, compared to the untreated (negative) control; for EC50: concentration needed to get 50% killing compared to antibiotic alone (VAN 20 μg/ml) and complete killing, read-out: Combin. (EC50)
Method in brief: (§1)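 Mu50 biofilms from 10^8 CFU/ml inoculum (4 h adhesion, then 20 h, 37 °C). Pre-treatment: compound (0.1-250 μM) present during biofilm formation, then vancomycin 20 μg/ml alone 24 h; combination: mature biofilm given vancomycin 20 μg/ml plus compound 24 h. Survivors counted by plating versus vancomycin alone.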

[2] = test system: methicillin resistant S. aureus Mu50 strain (S. aureus ATCC700699) biofilm; assay: Biofilm susceptibility to vancomycin, pre-treatment regimen (biofilm formed in presence of compound, then vancomycin); assay type: cell-based; conditions: for Pretreat (100 μM): percentage Colony Forming Units (CFU's) per biofilm: compound 100 μM during biofilm formation, then VAN 20 μg/ml, compared to the untreated (negative) control; for EC50: concentration needed to get 50% killing compared to antibiotic alone (VAN 20 μg/ml) and complete killing, read-out: Pretreat. (EC50)
Method in brief: as §1

For `O=C(NC[C@H]1OC[C@@](O)(CNC(=O)c2ccccc2)[C@@H]1O)c1cccc(C(F)(F)F)c1` [compound 166, N-(((2R,3R,4S)-4-(benzamidomethyl)-3,4-dihydroxytetrahydrofuran-2-yl)methyl)-3-(trifluoromethyl)benzamide], the “Combin. (100 μM): percentage Colony Forming Units (CFU's) per biofilm” value [1] was 12.34 percentage, the EC50 [1] was 12.3 µM and the “Pretreat (100 μM): percentage Colony Forming Units (CFU's) per biofilm” value [2] was 10.16 percentage. The EC50 [2] was 9.13 µM.

`O=C(NC[C@]1(O)CO[C@H](CNC(=O)c2cccnn2)[C@H]1O)c1ccccc1` [compound 206, N-(((2R,3R,4S)-4-(benzamidomethyl)-3,4-dihydroxytetrahydrofuran-2-yl)methyl)pyridazine-3-carboxamide] was tested, and the “Combin. (100 μM): percentage Colony Forming Units (CFU's) per biofilm” value [1] was 15.17 percentage and the “Pretreat (100 μM): percentage Colony Forming Units (CFU's) per biofilm” value [2] was 6.460 percentage.

With `O=C(NC[C@]1(O)CO[C@H](CNC(=O)c2ccncc2Cl)[C@H]1O)c1ccccc1` [compound 200, N-(((2R,3R,4S)-4-(benzamidomethyl)-3,4-dihydroxytetrahydrofuran-2-yl)methyl)-3-chloroisonicotinamide] the “Combin. (100 μM): percentage Colony Forming Units (CFU's) per biofilm” value [1] was 48.93 percentage, the EC50 [1] was 232 µM and the “Pretreat (100 μM): percentage Colony Forming Units (CFU's) per biofilm” value [2] was 58.59 percentage. For the same molecule, the EC50 [2] was over 250 µM.

With `CN(C)c1ccccc1C(=O)NC[C@H]1OC[C@@](O)(CNC(=O)c2ccccc2)[C@@H]1O` [compound 174, N-(((2R,3R,4S)-4-(benzamidomethyl)-3,4-dihydroxytetrahydrofuran-2-yl)methyl)-2-(dimethylamino)benzamide] the “Combin. (100 μM): percentage Colony Forming Units (CFU's) per biofilm” value [1] was 11.11 percentage and the “Pretreat (100 μM): percentage Colony Forming Units (CFU's) per biofilm” value [2] was 28.01 percentage.

`O=C(NC[C@]1(O)CO[C@H](CNC(=O)c2ncccn2)[C@H]1O)c1ccccc1` [compound 203, N-(((2R,3R,4S)-4-(benzamidomethyl)-3,4-dihydroxytetrahydrofuran-2-yl)methyl)pyrimidine-2-carboxamide] was tested, and the “Combin. (100 μM): percentage Colony Forming Units (CFU's) per biofilm” value [1] was 31.95 percentage and the “Pretreat (100 μM): percentage Colony Forming Units (CFU's) per biofilm” value [2] was 41.20 percentage.

With `O=C(Cc1ccccc1)NC[C@H]1OC[C@@](O)(CNC(=O)c2ccccc2)[C@@H]1O` [compound 189, N-(((3S,4R,5R)-3,4-dihydroxy-5-((2-phenylacetamido)methyl)tetrahydrofuran-3-yl)methyl)benzamide] the “Combin. (100 μM): percentage Colony Forming Units (CFU's) per biofilm” value [1] was 58.95 percentage and the “Pretreat (100 μM): percentage Colony Forming Units (CFU's) per biofilm” value [2] was 59.77 percentage.

`O=C(NC[C@H]1OC[C@@](O)(CNC(=O)c2ccccc2)[C@@H]1O)c1ccc(Cl)nc1` [compound 202, N-(((2R,3R,4S)-4-(benzamidomethyl)-3,4-dihydroxytetrahydrofuran-2-yl)methyl)-6-chloronicotinamide] was tested, and the “Combin. (100 μM): percentage Colony Forming Units (CFU's) per biofilm” value [1] was 18.24 percentage and the “Pretreat (100 μM): percentage Colony Forming Units (CFU's) per biofilm” value [2] was 14.00 percentage.

In the case of `CN(C)c1cccc(C(=O)NC[C@H]2OC[C@@](O)(CNC(=O)c3ccccc3)[C@@H]2O)c1` [compound 165, N-(((2R,3R,4S)-4-(benzamidomethyl)-3,4-dihydroxytetrahydrofuran-2-yl)methyl)-3-(dimethylamino)benzamide], the “Combin. (100 μM): percentage Colony Forming Units (CFU's) per biofilm” value [1] is reported as 26.43 percentage and the “Pretreat (100 μM): percentage Colony Forming Units (CFU's) per biofilm” value [2] is reported as 16.00 percentage.

`CS(=O)(=O)NC[C@H]1OC[C@@](O)(CNC(=O)c2ccccc2)[C@@H]1O` [compound 211, N-(((3S,4R,5R)-3,4-dihydroxy-5-(methylsulfonamidomethyl)tetrahydrofuran-3-yl)methyl)benzamide] was tested, and the “Combin. (100 μM): percentage Colony Forming Units (CFU's) per biofilm” value [1] was 38.03 percentage and the “Pretreat (100 μM): percentage Colony Forming Units (CFU's) per biofilm” value [2] was 31.02 percentage.

`COc1cc(C(=O)NC[C@H]2OC(O)[C@@](O)(CNC(=O)c3cc(OC)c(OC)c(OC)c3)[C@@H]2O)cc(OC)c1OC` (stereo partly drawn) [compound 16, N,N′-(((2R,3R,4R)-3,4,5-trihydroxytetrahydrofuran-2,4-diyl)bis(methylene))bis(3,4,5-trimethoxybenzamide)] was tested, and the “Combin. (100 μM): percentage Colony Forming Units (CFU's) per biofilm” value [1] was 71.85 percentage, the EC50 [1] was 238 µM and the “Pretreat (100 μM): percentage Colony Forming Units (CFU's) per biofilm” value [2] was 62.41 percentage. It also gave an EC50 [2] of 207 µM.

With `O=C(NC[C@H]1OC[C@@](O)(CNC(=O)c2ccccc2)[C@@H]1O)Nc1ccccc1` [compound 223, N-(((3S,4R,5R)-3,4-dihydroxy-5-((3-phenylureido)methyl)tetrahydrofuran-3-yl)methyl)benzamide] the “Combin. (100 μM): percentage Colony Forming Units (CFU's) per biofilm” value [1] was 18.72 percentage and the “Pretreat (100 μM): percentage Colony Forming Units (CFU's) per biofilm” value [2] was 23.99 percentage.

With `O=C(NC[C@]1(O)CO[C@H](CNC(=O)c2cnc(Cl)cc2Cl)[C@H]1O)c1ccccc1` [compound 198, N-(((2R,3R,4S)-4-(benzamidomethyl)-3,4-dihydroxytetrahydrofuran-2-yl)methyl)-4,6-dichloronicotinamide] the “Combin. (100 μM): percentage Colony Forming Units (CFU's) per biofilm” value [1] was 11.25 percentage, the EC50 [1] was 7.52 µM and the “Pretreat (100 μM): percentage Colony Forming Units (CFU's) per biofilm” value [2] was 19.18 percentage. For the same molecule, the EC50 [2] was 10.8 µM.

With `O=C(NC[C@]1(O)CO[C@H](CNC(=O)c2ccccc2I)[C@H]1O)c1ccccc1` [compound 179, N-(((2R,3R,4S)-4-(benzamidomethyl)-3,4-dihydroxytetrahydrofuran-2-yl)methyl)-2-iodobenzamide] the “Combin. (100 μM): percentage Colony Forming Units (CFU's) per biofilm” value [1] was 16.46 percentage, the EC50 [1] was 20.4 µM and the “Pretreat (100 μM): percentage Colony Forming Units (CFU's) per biofilm” value [2] was 3.84 percentage. The EC50 [2] was 1.85 µM.

`Cc1ccc(C(=O)NC[C@H]2OC[C@@](O)(CNC(=O)c3ccccc3)[C@@H]2O)cc1` [compound 151, N-(((2R,3R,4S)-4-(benzamidomethyl)-3,4-dihydroxytetrahydrofuran-2-yl)methyl)-4-methylbenzamide] was tested, and the “Combin. (100 μM): percentage Colony Forming Units (CFU's) per biofilm” value [1] was 24.59 percentage and the “Pretreat (100 μM): percentage Colony Forming Units (CFU's) per biofilm” value [2] was 22.36 percentage.

In the case of `O=C(NC[C@]1(O)CO[C@H](CNC(=O)c2cnccc2Cl)[C@H]1O)c1ccccc1` [compound 201, N-(((2R,3R,4S)-4-(benzamidomethyl)-3,4-dihydroxytetrahydrofuran-2-yl)methyl)-4-chloronicotinamide], the “Combin. (100 μM): percentage Colony Forming Units (CFU's) per biofilm” value [1] is reported as 74.81 percentage, the EC50 [1] is reported as over 250 µM and the “Pretreat (100 μM): percentage Colony Forming Units (CFU's) per biofilm” value [2] is reported as 51.81 percentage. The EC50 [2] was 200 µM.

In the case of `O=C(NC[C@]1(O)CO[C@H](CNC(=O)c2cccnc2Cl)[C@H]1O)c1ccccc1` [compound 199, N-(((2R,3R,4S)-4-(benzamidomethyl)-3,4-dihydroxytetrahydrofuran-2-yl)methyl)-2-chloronicotinamide], the “Combin. (100 μM): percentage Colony Forming Units (CFU's) per biofilm” value [1] is reported as 65.56 percentage, the EC50 [1] is reported as over 250 µM and the “Pretreat (100 μM): percentage Colony Forming Units (CFU's) per biofilm” value [2] is reported as 68.76 percentage. The EC50 [2] was over 250 µM.

In the case of `O=C(NC[C@]1(O)CO[C@H](CNS(=O)(=O)c2ccccc2)[C@H]1O)c1ccccc1` [compound 215, N-(((3S,4R,5R)-3,4-dihydroxy-5-(phenylsulfonamidomethyl)tetrahydrofuran-3-yl)methyl)benzamide], the “Combin. (100 μM): percentage Colony Forming Units (CFU's) per biofilm” value [1] is reported as 31.29 percentage and the “Pretreat (100 μM): percentage Colony Forming Units (CFU's) per biofilm” value [2] is reported as 22.23 percentage.

With `Cc1ccc(S(=O)(=O)NC[C@H]2OC[C@@](O)(CNC(=O)c3ccccc3)[C@@H]2O)cc1` [compound 216, N-(((3S,4R,5R)-3,4-dihydroxy-5-(((4-methylphenyl)sulfonamido)methyl)tetrahydrofuran-3-yl)methyl)benzamide] the “Combin. (100 μM): percentage Colony Forming Units (CFU's) per biofilm” value [1] was 25.95 percentage and the “Pretreat (100 μM): percentage Colony Forming Units (CFU's) per biofilm” value [2] was 16.96 percentage.

In the case of `COc1ccc(C(=O)NC[C@H]2OC[C@@](O)(CNC(=O)c3ccccc3)[C@@H]2O)cc1` [compound 154, N-(((2R,3R,4S)-4-(benzamidomethyl)-3,4-dihydroxytetrahydrofuran-2-yl)methyl)-4-methoxybenzamide], the “Combin. (100 μM): percentage Colony Forming Units (CFU's) per biofilm” value [1] is reported as 22.56 percentage and the “Pretreat (100 μM): percentage Colony Forming Units (CFU's) per biofilm” value [2] is reported as 19.34 percentage.

With `O=C(NC[C@]1(O)CO[C@H](CNS(=O)(=O)C(F)(F)F)[C@H]1O)c1ccccc1` [compound 214, N-(((3S,4R,5R)-3,4-dihydroxy-5-(((trifluoromethyl)sulfonamido)methyl)tetrahydrofuran-3-yl)methyl)benzamide] the “Combin. (100 μM): percentage Colony Forming Units (CFU's) per biofilm” value [1] was 42.85 percentage and the “Pretreat (100 μM): percentage Colony Forming Units (CFU's) per biofilm” value [2] was 29.28 percentage.

For `O=C(NC[C@]1(O)CO[C@H](CNC(=O)c2ccccn2)[C@H]1O)c1ccccc1` [compound 176, N-(((2R,3R,4S)-4-(benzamidomethyl)-3,4-dihydroxytetrahydrofuran-2-yl)methyl)picolinamide], the “Combin. (100 μM): percentage Colony Forming Units (CFU's) per biofilm” value [1] was 36.02 percentage and the “Pretreat (100 μM): percentage Colony Forming Units (CFU's) per biofilm” value [2] was 21.56 percentage.

`O=C(NC[C@H]1OC[C@@](O)(CNC(=O)c2ccccc2)[C@@H]1O)c1ccncc1` [compound 158, N-(((2R,3R,4S)-4-(benzamidomethyl)-3,4-dihydroxytetrahydrofuran-2-yl)methyl)isonicotinamide] was tested, and the “Combin. (100 μM): percentage Colony Forming Units (CFU's) per biofilm” value [1] was 13.89 percentage, the EC50 [1] was 19.2 µM and the “Pretreat (100 μM): percentage Colony Forming Units (CFU's) per biofilm” value [2] was 7.268 percentage. The EC50 [2] was 9.94 µM.

In the case of `O=C(NC[C@H]1OC[C@@](O)(CN2C(=O)c3ccccc3C2=O)[C@@H]1O)c1ccccc1Cl` [compound 231, 2-chloro-N-(((2R,3R,4S)-4-((1,3-dioxoisoindolin-2-yl)methyl)-3,4-dihydroxytetrahydrofuran-2-yl)methyl)benzamide], the “Combin. (100 μM): percentage Colony Forming Units (CFU's) per biofilm” value [1] is reported as 28.85 percentage, the EC50 [1] is reported as 39 µM and the “Pretreat (100 μM): percentage Colony Forming Units (CFU's) per biofilm” value [2] is reported as 8.18 percentage. For the same molecule, the EC50 [2] was 2.63 µM.
